Data on 7 compounds can be found in ChEMBL document CHEMBL1201862, “PubChem BioAssay data set” (2004).

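Where inhibition never reached the appropriate level, the endpoint shown equals the highest concentration tested. Otherwise, values were interpolated linearly from a five-concentration, 48-hour dose response in 96-well plates. GI50 marks 50% less growth.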 Active and inactive are the calls of the source. Rule as the data show it: active = GI50 up to about 1.1 µM and inactive = higher.

What all share (test): inhibition of tumour cell growth, NCI panel, 48 h
Test [1] relates to CAKI-1.
Test [2] has as its system SNB-75.
Test [3] deals with LOX IMVI.
Test [4] concerns RPMI-8226.
Test [5] has as its system MDA-MB-435.
Test [6] concerns HOP-92.
Test [7] has as its system COLO 205.
In test [8] the test system is HCC 2998.
The test system of test [9] is ACHN.
Test [10] has as its system A549.
Test [11] relates to EKVX.
Test [12] has as its system RXF 393.
In test [13] the test system is MDA-N.
In test [14] the test system is NCI-H522.
In test [15] the test system is SK-MEL-28.
In test [16] the test system is 786-0.
Test [17] concerns SN12C.
The subject of test [18] is SF-295.
Test [19] has as its system SK-OV-3.
Test [20] has as its system M14.

As to `Cc1cc2c(cc1C)[n+]([O-])c(N1CCN(c3ccc([N+](=O)[O-])cc3)CC1)c(C#N)[n+]2[O-]`, the GI50 in [1] is 83 µM (inactive); in test [2] it was 4.61 µM (inactive); in test [3], 25.2 µM (inactive); in [4], > 100 µM (inactive); in test [5], > 100 µM (inactive); in test [6] it was 23.2 µM (inactive). Further, the GI50 is > 100 µM (inactive) in test [7]; > 100 µM (inactive) in test [8]; 15.3 µM (inactive) in [9]; 29.8 µM (inactive) in test [10]; 26 µM (inactive) in test [11]; 13 µM (inactive) in [12]. The GI50 in test [13] is > 100 µM (inactive); in test [14], 26.2 µM (inactive); in test [15], > 100 µM (inactive); in test [16] it was 14.1 µM (inactive); in test [17] it was 35.3 µM (inactive); in test [18], 15.2 µM (inactive). The GI50 is 14.2 µM (inactive) in test [19] and 35.9 µM (inactive) in [20].

As to `Cc1cc(S(=O)(=O)Nc2nc(Nc3ccccc3)n[nH]2)c(SCC(=O)O)cc1Cl`, the GI50 in test [1], in test [2], in [3], in [4], in [5] and in test [6] was > 100 µM (inactive) in each case. Also, the GI50 in test [7], in [8], in test [9], in test [10], in test [11] and in test [12] was > 100 µM (inactive) each time. The GI50 in test [13], in test [14], in test [15], in test [16], in test [17] and in test [18] was > 100 µM (inactive) throughout. Besides, the GI50 in test [19] and in test [20] was > 100 µM (inactive) throughout.

As for `COC(=O)/C=C1/OC(c2ccc(Br)cc2)=C(Br)C1=O`, the GI50 in test [1] is 2.33 µM (inactive); in test [2], 7.43 µM (inactive); in test [3] it was 3.84 µM (inactive); in [4], 2.26 µM (inactive); in test [5], 7.67 µM (inactive); in test [6], 7.48 µM (inactive). Also, the GI50 in test [7] was 1.89 µM (inactive); in [8], 7.66 µM (inactive); in [9], 7.23 µM (inactive); in test [10], 16 µM (inactive); in test [11], 13.2 µM (inactive); in test [12], 4.94 µM (inactive). For the same compound, the GI50 in test [13] is 5.26 µM (inactive); in test [14] it was 3.94 µM (inactive); in test [15], 12 µM (inactive); in test [16] it was 2.4 µM (inactive); in test [17], 6.92 µM (inactive); in [18], 14.1 µM (inactive). Besides, the GI50 is 19.9 µM (inactive) in test [19] and 4.93 µM (inactive) in test [20].

Take `COc1ccc(/N=N/c2ccc3oc(=O)c(C(=O)Nc4ccccc4)cc3c2)cc1`: the GI50 in test [1] was > 10 µM (inactive); in test [2] it was > 9.31 µM (inactive); in test [3], > 10 µM (inactive); in [4], > 10 µM (inactive); in test [5], > 10 µM (inactive); in [6], > 10 µM (inactive). The GI50 is > 10 µM (inactive) in test [7]; > 10 µM (inactive) in test [8]; > 5.81 µM (inactive) in test [9]; > 10 µM (inactive) in test [10]; > 10 µM (inactive) in test [11]; > 10 µM (inactive) in test [12]. The GI50 in [13], in [14], in [15], in test [16], in [17] and in test [18] was > 10 µM (inactive) in each case. The GI50 in test [19] and in test [20] was > 10 µM (inactive) in each case.

On to `O=C1OC(c2ccc(Cl)cc2)=N/C1=C\c1ccccc1`, for which the GI50 in [1] was > 100 µM (inactive); in test [2] it was > 100 µM (inactive); in [3], > 100 µM (inactive); in test [4], 46.6 µM (inactive); in [5] it was > 100 µM (inactive); in test [6], > 100 µM (inactive). The GI50 in test [7], in test [8], in [9], in [10], in test [11] and in test [12] was > 100 µM (inactive) in each case. The GI50 is > 100 µM (inactive) in [13]; 49.2 µM (inactive) in [14]; > 100 µM (inactive) in [15]; > 100 µM (inactive) in test [16]; > 100 µM (inactive) in [17]; > 100 µM (inactive) in test [18]. Also, the GI50 in [19] and in [20] was > 100 µM (inactive) each time.

In the case of `O=c1[nH]c2c(Nc3c4ccccc4nc4ccccc34)c([N+](=O)[O-])c(Nc3c4ccccc4nc4ccccc34)c([N+](=O)[O-])c2[nH]1`, the GI50 in test [1] is 2.15 µM (inactive); in [2], 2.48 µM (inactive); in [3], 1.52 µM (inactive); in [4], 0.514 µM (active); in [5] it was 2.15 µM (inactive); in [6], 1.67 µM (inactive). Besides, the GI50 was 1.37 µM (inactive) in [7]; 1.73 µM (inactive) in [8]; 0.6 µM (active) in test [9]; 1.55 µM (inactive) in test [10]; 1.82 µM (inactive) in test [11]; 2.42 µM (inactive) in test [12]. Besides, the GI50 was 2.36 µM (inactive) in test [13]; 1.09 µM (active) in [14]; 3.13 µM (inactive) in test [15]; 1.2 µM (inactive) in [16]; 1.45 µM (inactive) in [17]; 2.41 µM (inactive) in test [18]. Further, the values for the GI50 in test [19] and in [20] were 3.03 µM (inactive) and 1.84 µM (inactive), respectively.

`O=C(CC(O)(C(F)(F)F)C(F)(F)F)c1cc(CC(=O)C(O)(C(F)(F)F)C(F)(F)F)cc(CC(=O)C(O)(C(F)(F)F)C(F)(F)F)c1`: the GI50 was 1.75 µM (inactive) in test [1]; 1.91 µM (inactive) in test [2]; 1.14 µM (inactive) in [3]; > 10 µM (inactive) in test [4]; 1 µM (active) in test [5]; 0.984 µM (active) in [6]. Moreover, the GI50 in test [7] was 1.61 µM (inactive); in [8] it was 1.54 µM (inactive); in test [9], 0.802 µM (active); in test [10], 1.84 µM (inactive); in [11], 2.24 µM (inactive); in test [12], 1.47 µM (inactive). Also, the GI50 was 2.64 µM (inactive) in test [13]; 1.14 µM (inactive) in [14]; 1.64 µM (inactive) in test [15]; 1.79 µM (inactive) in test [16]; 1.41 µM (inactive) in [17]; 1.05 µM (active) in test [18]. Also, the figures for the GI50 in test [19] and in test [20] were 2.14 µM (inactive) and 2.58 µM (inactive), respectively.
